Measurements as given in ChEMBL document CHEMBL1141739, “Donnaienin, a New Acetogenin Bearing a Hydroxylated Tetrahydrofuran Ring” (J Nat Prod, 1998).
In brackets after ≈: the same amount, converted by molar mass.

What was measured:
Format in all cases: functional, cell-based
HCT-8 = assay: Cytotoxicity against human HCT8 cells after 5 days by MTT method; details: HCT-8, 120 h
KB = assay: Cytotoxicity against human KB cells after 5 days by MTT method; details: 120 h
[1] = Cytotoxicity against human Bel cells after 5 days by MTT method; details: 120 h

## CCCCCCCCCCCCCC[C@H](O)[C@@H]1C[C@@H](O)[C@@H]([C@@H](O)CC[C@@H](O)CCCCC[C@@H](O)CC2=C[C@H](C)OC2=O)O1 [DONNAIENIN]
HCT-8
  IC50: > 10 µg/mL
KB
  IC50: > 10 µg/mL
[1]
  IC50: 6.7 µg/mL (≈ 10.9 µM)
